The nature of data set [1]: Phase I single ascending dose study, pharmacokinetics. In kind it is in vivo, human. How it is done:
(§1) Isofagomine tartrate is a pharmacological chaperone in development for the treatment of the lysosomal storage disorder Gaucher disease. Using cell-based and animal models we have shown that isofagomine increases cellular levels of glucocerebrosidase (GCase), the enzyme deficient in Gaucher disease. Randomized double-blind Phase I clinical studies were performed in 72 healthy volunteers, (39 male, 33 female). Isofagomine tartrate was orally administered as an aqueous solution. In a first-in-human single ascending dose study, doses of 8, 25, 75, 150 (two cohorts), and 300 mg were administered (6 active, 2 placebo in each cohort). In a multiple ascending dose study, doses of 25, 75, and 225 mg were administered daily for seven days (6 active, 2 placebo in each cohort).
(§2) Mean plasma levels peaked at 3.4 hr. […] (SEM: 2 hr.).

For the next data set, the target named is T1, GCase (Homo sapiens, UniProt P04062).
T1 construct: endogenous in cells; host or cells: isolated white blood cells of healthy volunteers dosed orally
T1 sequence (P04062 40-536): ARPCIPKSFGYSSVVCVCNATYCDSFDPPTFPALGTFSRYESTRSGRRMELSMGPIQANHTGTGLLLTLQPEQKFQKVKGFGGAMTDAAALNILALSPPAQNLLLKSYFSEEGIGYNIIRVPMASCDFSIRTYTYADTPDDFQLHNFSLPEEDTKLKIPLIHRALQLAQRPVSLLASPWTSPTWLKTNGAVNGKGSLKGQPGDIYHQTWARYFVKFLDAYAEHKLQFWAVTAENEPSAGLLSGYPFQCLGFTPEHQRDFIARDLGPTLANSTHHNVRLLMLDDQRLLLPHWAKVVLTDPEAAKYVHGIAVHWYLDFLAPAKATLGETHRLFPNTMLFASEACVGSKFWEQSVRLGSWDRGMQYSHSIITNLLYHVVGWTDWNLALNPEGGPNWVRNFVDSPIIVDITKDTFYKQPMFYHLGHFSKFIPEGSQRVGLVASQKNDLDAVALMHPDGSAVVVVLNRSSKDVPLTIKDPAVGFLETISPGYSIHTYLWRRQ
Kind of data set: Phase I multiple-dose study, GCase activity in isolated white blood cells. In kind it is in vivo. How it is done:
as §1
In the multiple-dose study, GCase activity in isolated white blood cells was measured at days 1, 3, 5 and 7 during administration of isofagomine tartrate, and at days 9, 14 and 21 during the post-treatment washout period. […] The increase in enzyme level was dose-related, reaching approximately 3.5-fold above baseline levels.

The next data set concerns mutant GCase. Kind of data set: Ex vivo response study, GCase levels in macrophages derived from Gaucher patients. It is filed as cell-based, human. How it is done:
The intracellular enhancement activity of isofagomine L-(+)-tartrate was investigated with fibroblasts established from Gaucher patients. To evaluate the effects of IFG on mutant GCase levels, an ex vivo response study with macrophages and EBV-transformed lymphoblasts derived from peripheral leukocytes of 40 patients was conducted.
The study included 21 males with type I Gaucher disease, 1 person with type III Gaucher disease, and 18 females with type I Gaucher disease. Patients ranged in age from 7 to 83 years, and 38 of 40 patients were on enzyme replacement therapy (ERT).

Data set [2] is described as follows: Phase I multiple ascending dose study, pharmacokinetics. It is filed as in vivo, human. The following applies: after 7 days of oral administration. How it is done: as §1, §2
Data set [3] can be described thus: Powder characteristics (density, flowability). In kind it is physicochemical. From the text:
Meanwhile, isofagomine tartrate according to the present invention has good powder characteristics, e.g., crystal size, density, and flowability, that are suitable for a pharmaceutical manufacturing process. Tables 2 and 3 summarize powder characteristics of an isofagomine tartrate sample prepared according to the present invention. […] Most batches provided more than 98%, or at minimum 90%, of isofagomine tartrate with a particle size of about 1200 μm or less.

Data set [4] in a line: Moisture uptake studies (saturated salt solutions). It is filed as physicochemical. Particulars: for Weight gain (%): single samples; for Average weight gain (%): average of 3 samples. From the text:
The moisture uptake test results of six different isofagomine tartrate samples prepared according to present invention are summarized in Tables 4 and 5.

The nature of data set [5]: Phase I clinical studies in healthy volunteers, safety. In kind it is in vivo, human. How it is done:
as §1

Data set [6] deals with T2, recombinant human acid β-glucosidase (GCase) (Homo sapiens, UniProt P04062).
T2 sequence (P04062 40-536): T1 sequence (P04062 40-536)
The following applies: background statement; cited from earlier work.

For data set [7] the following is noted: animals, background statement; cited from earlier work.

The term Tmax denotes the time at which the peak concentration occurs. For orientation: half-life means how long it takes for the measured level to halve.

“And” between values parts separate entries of the source, which are not always exact repeats. Equal entries are not always repeated. Structures can show the parent of a compound that is named as a salt. Where two headings read alike, the source gives them in different places.

In the case of `OC[C@H]1CNC[C@@H](O)[C@@H]1O` [isofagomine tartrate, Isofagomine tartrate], the Tmax in data set [1] (both sexes, human, plasma, single-dose study, oral, SEM 0.6 hr, read-out: time at which mean plasma levels peaked (Tmax)) turned out to be 3.4 h. In addition, in data set [1] (both sexes, human, plasma, single-dose study, oral, SEM 2 hr, read-out: plasma elimination half-life (converted)), the half-life is 14 h. In addition, the “systemic exposure via the oral route” value in data set [1] (healthy volunteers) is given as “good systemic exposure”. Besides, the “plasma AUC and Cmax versus dose” value in [1] (single-dose study, 8-300 mg) is recorded as “linearly correlated with administered dose”. Further, on GCase (isolated white blood cells, healthy volunteers, 25-225 mg daily for seven days, dose-related, maximum reached), the “increase in GCase level above baseline” value is reported as “approximately 3.5 fold”. In addition, the “GCase levels after removal of the drug” value at GCase (post-treatment washout period) is recorded as “return to near baseline levels by day 21”. The “increase in GCase levels (average)” value in the data set on mutant GCase (macrophages from Gaucher patients, 32 of 34 responding, treated 5 days, dose-dependent) is listed as 2.8 fold. Moreover, the “pharmacokinetic behavior versus dose” value in data set [2] was “linear with dose”. Also, the “Bulk Density” value in data set [3] is 0.44 g/mL; in [3] (listed as Isofagomine tartrate), “around 0.44 g/ml”. For the same molecule, the “Carr Index” value in data set [3] and in [3] (listed as Isofagomine tartrate) was 15% in each case. In data set [3], the “Tap Density” value was found to be 0.52 g/mL. The hygroscopicity result in data set [4] is on record as “not hygroscopic”. The “Weight gain (%)” value in [4] (NaBr saturated solution, 24 hours, RH 59%, 20.5 °C) is 0.06% and 0.00% and 0.05%; in data set [4] (NaBr saturated solution, 48 hours, RH 59%, 20.8 °C) it was 0.04% and 0.02% and 0.10%; in [4] (NaBr saturated solution, 8 days, RH 59%, 20.2 °C), 0.06% and 0.07% and 0.10%; in data set [4] (NaCl saturated solution, 24 hours, RH 72%, 20.5 °C), 0.02% and 0.00% and 0.08%; in [4] (NaCl saturated solution, 48 hours, RH 71%, 20.8 °C) it was 0.05% and 0.00% and 0.8%; in [4] (NaCl saturated solution, 8 days, RH 72%, 20.2 °C), 0.10% and 0.00% and 0.15%. For the same molecule, the “Average weight gain (%)” value stood at 0.04% in data set [4] (NaBr saturated solution, 24 hours, RH 59%); 0.05% in data set [4] (NaBr saturated solution, 48 hours, RH 59%); 0.08% in data set [4] (NaBr saturated solution, 8 days, RH 59%); 0.04% in [4] (NaCl saturated solution, 24 hours, RH 72%); 0.05% in data set [4] (NaCl saturated solution, 48 hours, RH 71%); 0.08% in data set [4] (NaCl saturated solution, 8 days, RH 72%). In addition, the moisture uptake entry in data set [4] (after exposure to 75% RH for 8 days) is “about 0.08%”. The serious adverse events result in data set [5] (both studies) was “No serious adverse events occurred”. Besides, the treatment-emergent adverse events entry in data set [5] (both studies) was “mostly mild”. For the same molecule, the tolerability result in [5] (healthy volunteers, oral aqueous solution, single 8-300 mg and 25-225 mg daily for seven days) is reported as “generally well tolerated at all doses”.
With `OC[C@H]1CNC[C@@H](O)[C@@H]1O` [isofagomine, (3R,4R,5R)-5-(hydroxymethyl)-3,4-piperidinediol], the “inhibition of GCase” value in [6] is reported as “potent inhibitor”. Further, the blood-brain barrier crossing entry in data set [7] is given as “cross the blood-brain barrier”. In the data set with mutant GCase (N370S/N370S, N370S/L444P, N370S/84insG, N370S/R163X, N370S/Y212H, L444P/del 136T, L444P/F216Y, L444P/L174F, G202R/R463C, K79N/complex B exon 9/10), the “effect on GCase levels in cells from patients with different genotypes” value is “significantly increased GCase levels”. Moreover, in the data set with mutant GCase (macrophages), the “concentration at maximum enhancement of GCase” value is given as “about 30 μM”. In addition, the accumulation result in [2] was “no unexpected accumulation”.

The values are drawn from patent US7863453B2, “Tartrate salt of isofagomine and methods of use” (Amicus Therapeutics, Inc., priority 2006, dated 2011).
